Results published in patent US20030162834A1, “Natural physiologically active material effective on fish diseases and fish food containing the material” (priority 1998, published 2003).

Assays:
[1] = Growth trial: tiger puffer fed basal diet supplemented with 0.5% octanoic acid; type: in vivo
Procedure: The inventors conducted trials using tiger puffer to test whether the octanoic acid adversely affects growth of fish. Two trial groups were prepared; i.e., one group fed the basal diet supplemented with 0.5% of octanoic acid (5 g of octanoic acid added for 1 kg of diet), and the other group fed the basal diet alone. Trial conditions were that 50 pieces of tiger puffer for each group were put in a 1-t water tank, and the puffs were fed twice per day, i.e., in the morning and evening. A bleeding trial period was 45 days and the water temperature was 25+−1 degrees centigrade during the trial period.

Heterobothrium okamotoi [2] = assay: Trial 1: in vitro immersion of oncomiracidia and gill-attached larvae in fatty acid seawater solutions; type: cell-based; conditions: 1 mM in seawater, 20 degrees centigrade
Procedure: (§1) Fatty acids having carbon number C2, C4 and C6-C10 were each dissolved in seawater at 1 mM concentration, and oncomiracidia of Heterobothrium okamotoi and larvae attaching to the gill were immersed in the seawater solutions. After 2 hours from the start of immersion, the efficacy of the fatty acids was investigated by counting the number of dead oncomiracidia and the number of larvae dropping down from the gill. More than 30 individuals of parasites were transferred to each group.
(§2) For any of the groups, the trial was made under condition of 20 degrees centigrade.

[3] = tested on: parasites (Heterobothrium okamotoi, Cryptocaryon irritans); assay: Trial 1: overall statements on efficacy of fatty acids against parasites; type: cell-based; conditions: Trial 1 summary; C12 at a low concentration, not the same condition
Procedure: as §1
For Cryptocaryon irritans, fatty acids having carbon number C2, C4 and C6-C10 were each dissolved in seawater at 0.5 mM concentration, and theronts of Cryptocaryon irritans were immersed in the seawater solutions. After 1 hour from the start of immersion, the efficacy of the fatty acids was investigated by counting the number of dead theronts. More than 200 individuals of parasites were transferred to each group.
as §2

[4] = tested on: Benedenia seriolae adults; assay: Trial 2: in vitro immersion in octanoic acid seawater; type: cell-based; conditions: 800 PPM octanoic acid added to seawater, 20 degrees centigrade
Procedure: (§3) 800 PPM of octanoic acid was added to seawater and dissolved therein maximally. In this seawater solution, Bivagina tai larvae sampled from the gill of red sea bream, Heteraxine heterocerca larvae sampled from the gill of young yellowtail, Benedenia seriolae adults sampled from the body surface of young yellowtail, Kudoa shiomitsui spores sampled from the heart of tiger puffer, and Pseudocaligus fugu adults sampled from the body surface of tiger puffer were immersed under condition of 20 degrees centigrade, followed by observation. As control, another group was managed using seawater alone. More than 30 individuals of parasites were transferred to each group.

Bivagina tai larvae = assay: as above; type: cell-based; conditions: 800 PPM octanoic acid added to seawater, 20 degrees centigrade
Procedure: as §3

[5] = tested on: Heteraxine heterocerca larvae; assay: as above; type: cell-based; conditions: 800 PPM octanoic acid added to seawater, 20 degrees centigrade
Procedure: as §3

Kudoa shiomitsui spores = assay: as above; type: cell-based; conditions: 800 PPM octanoic acid added to seawater, 20 degrees centigrade
Procedure: as §3

[6] = tested on: Pseudocaligus fugu adults; assay: as above; type: cell-based; conditions: 800 PPM octanoic acid added to seawater, 20 degrees centigrade
Procedure: as §3

Heterobothrium okamotoi [7] = assay: Trial 3: oral octanoic acid, Heterobothrium okamotoi challenge trial on tiger puffer; type: in vivo; conditions: 2.5 g octanoic acid per 1 kg pellets
Procedure: Fish tested: Tiger puffer weighing approximately 133.6 g in average.
Trial groups: Two groups, i.e., an octanoic-acid added group in which fish were fed diets added with octanoic acid, and a control group in which fish were fed diets not added with octanoic acid. The feeding rate was 1% of fish weight/day for each group.
Trial diets: The diets added with octanoic acid were prepared by spraying 2.5 g of octanoic acid to 1 kg of commercially available pellets for tiger puffer. The control group fish were fed the commercially available pellets for tiger puffer.
Challenge trial: Each 12 pieces of fish (normal fish) from among a shoal of fish, in which no diseases such as Heterobothrium okamotoi infection were found, were put in a 100-liter water tank, and were fed the respective trial diets. After 7 days, 6 pieces of fish (infected fish), which had been infected in advance with approximately 100 individuals of Heterobothrium okamotoi, were added to each trial group. Then, bleeding was continued for 73 days while feeding the trial diets. In this trial, the parasites Heterobothrium okamotoi in the infected fish were in the stage of adult. After 30 days from adding the infected fish, 4 pieces of normal fish were sampled from each group, and the number of parasites attaching to the gill was counted. During the trial period, the water temperature was in the range of 16.5-20.9 degrees centigrade and the water was exchanged at 20 cycles/day.
Evaluation was made by comparing mortality of the fish in respective groups during the trial period, and by counting the number of parasites attaching to the gill of the infected fish in each group for investigation of the remedy efficacy and the infection preventable efficacy.

Benedenia seriolae = assay: Trial 5: oral octanoic acid, field trial on amberjack; type: in vivo; conditions: 8 g octanoic acid per 1 kg pellets, 9 days
Procedure: (§4) Fish tested: Amberjack weighing approximately 117 g in average.
(§5) Trial groups: Two groups, i.e., an octanoic-acid added group in which fish were fed diets added with octanoic acid, and a control group in which fish were fed diets not added with octanoic acid. The feeding rate was 3% of fish weight/day for each group.
(§6) Trial diets: The diets added with octanoic acid were prepared by spraying 8 g of octanoic acid to 1 kg of commercially available pellets for amberjack. The control group fish were fed the commercially available pellets for amberjack.
(§7) Trial: The trial was conducted using off-shore net pens of 10×10×9 m placed in the field sea. Each 15000 pieces of fish for each group were treated with a parasiticide containing commercially available hydrogen peroxide as a main ingredient, and then put in each net pen. At this time, it was confirmed that Heteraxine heterocerca parasitizing to the gill and Benedenia seriolae parasitizing on the body surface were eliminated, by investigating 20 pieces of fish for each group. It was also simultaneously confirmed that blood flukes (Pradeontacylix) were present in the fish, by investigating the presence of eggs in the gill filaments. Then, bleeding was continued for 9 days while feeding the trial diets. The water temperature during the trial period was in the range of 18.5-20.0 degrees centigrade.
(§8) Evaluation was made by sampling 20 pieces of fish from each group after 9 days from the start of the bleeding, and counting and comparing the number of Heteraxine heterocerca in the gill of each sampled fish, the number of Benedenia seriolae on the body surface, and the number of eggs of blood flukes (Paradeontacylix) in the gill filaments.

Heteraxine heterocerca = assay: as above; type: in vivo; conditions: 8 g octanoic acid per 1 kg pellets, 9 days
Procedure: as §4, §5, §6, §7, §8

[8] = tested on: blood flukes (Paradeontacylix); assay: as above; type: in vivo; conditions: 8 g octanoic acid per 1 kg pellets, 9 days
Procedure: as §4, §5, §6, §7, §8

Cryptocaryon irritans = assay: Trial 10: immersion of infected tiger puffer in seawater containing octanoic acid; type: in vivo; conditions: 200 ppm for 2 minutes, 3 hours after return to seawater
Procedure: 300 g of tiger puffer infected with Cryptocaryon irritans was immersed in seawater containing 200 ppm of octanoic acid for 2 minutes, and then returned to seawater again. After 3 hours from return to seawater, the parasites Cryptocaryon irritans and their situations and numbers were observed.

## CCCCCCCC(=O)O [octanoic acid]
[1]; continued for succeeding seven months
  died fish: no died fish
[1]; in vivo
  adverse effects on puffer growth: adverse effects on the puffer growth were not found
  content of octanoic acid in the edible muscle: no octanoic acid was detected
Heterobothrium okamotoi [2]
  emergence of dead oncomiracidia: emerged earliest
Heterobothrium okamotoi [2]; 2 hours
  larvae dropping down from the gill (drop-down rate): highest drop-down rate
[3]
  efficacy against parasites: most effective
[4]
  contraction of parasites: became contracted apparently
  time until contraction occurred: approximately 10 minutes
Bivagina tai larvae
  contraction of parasites: became contracted apparently
  time until contraction occurred: approximately 10 minutes
[5]
  contraction of parasites: became contracted apparently
  time until contraction occurred: approximately 10 minutes
Kudoa shiomitsui spores
  time until burst image of the spores was observed: approximately 1 hour
[6]
  contraction of parasites: no contraction
  time until reduction in swimming activity was found: approximately 1 hour
Heterobothrium okamotoi [7]
  number of parasites attaching to the normal fish after 30 days, versus control: apparently reduced
Heterobothrium okamotoi [7]; 73 days
  number of parasites (adults and larvae) attaching to infected fish survived at the end of the trial, versus control: apparently reduced
  numbers of parasites in normal fish survived at the end and fish died during the trial: apparently reduced
Heterobothrium okamotoi [7]; 73 days, approximately 100 at the start
  adults attaching to each survived infected fish at the end of the trial: approximately 27 individuals
Heterobothrium okamotoi [7]; 73 days, control 16.7%
  survival rate of the infected fish at the end of the trial: 66.7%
Heterobothrium okamotoi [7]; cohabitation with infected fish 73 days, control 0%
  survival rate of the normal fish: 75%
Benedenia seriolae
  number of Benedenia seriolae on the body surface, versus control: no appreciable difference
Heteraxine heterocerca
  number of Heteraxine heterocerca in the gill, versus control: apparently fewer
[8]
  eggs of blood flukes in the gill filaments: no eggs of blood flukes were observed
Cryptocaryon irritans; before treatment 193/2 cm^2
  number of parasites attaching to the body surface: 261 /2 cm^2
Cryptocaryon irritans; before treatment 624
  number of parasites attaching to the gill: 356 per branchial arch
Cryptocaryon irritans; of 261
  body-surface parasites that showed movement and seemed still alive: 9
Cryptocaryon irritans; of 356
  gill parasites that showed movement and seemed still alive: 193
